The source of these data is PubChem BioAssay AID328 (DTP/NCI, 2004).

The subject of the assay is BDF1 mice, P388 leukemia ip, median survival T/C. Kind of assay: NCI In Vivo Anticancer Drug Screen. Data for tumor model P388 Leukemia (intraperitoneal) in B6D2F1 (BDF1) mice. The note with it: endpoint: median survival time, higher = longer survival. The essentials:
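Each value expresses how treatment altered survival: treated-mouse outcome over vehicle-mouse outcome, both groups bearing the transplanted tumour.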

The mark [1] stands for this setting: dose: 50.0 mg/kg/injection, schedule: Q04DX003 (ip), vehicle: saline with Tween-80.
The mark [2] stands for this setting: dose: 100.0 mg/kg/injection, schedule: Q04DX003 (ip), vehicle: saline with Tween-80.
Setting [3] is: dose: 200.0 mg/kg/injection, schedule: Q04DX003 (ip), vehicle: saline with Tween-80.
[4] abbreviates: dose: 50.0 mg/kg/injection, schedule: Q04DX003 (ip), vehicle: saline.
Where [5] appears, read: dose: 100.0 mg/kg/injection, schedule: Q04DX003 (ip), vehicle: saline.
Where [6] appears, read: dose: 6.25 mg/kg/injection, schedule: Q01DX009 (ip), vehicle: Klucel (hydroxypropylcellulose) (HPC).
[7] abbreviates: dose: 12.5 mg/kg/injection, schedule: Q01DX009 (ip), vehicle: Klucel (hydroxypropylcellulose) (HPC).
The mark [8] stands for this setting: dose: 50.0 mg/kg/injection, schedule: Q01DX009 (ip), vehicle: Klucel (hydroxypropylcellulose) (HPC).
Setting [9] is: dose: 100.0 mg/kg/injection, schedule: Q01DX009 (ip), vehicle: Klucel (hydroxypropylcellulose) (HPC).
Where [10] appears, read: dose: 3.12 mg/kg/injection, schedule: Q01DX009 (ip), vehicle: Klucel (hydroxypropylcellulose) (HPC).
Setting [11] is: dose: 25.0 mg/kg/injection, schedule: Q04DX003 (ip), vehicle: Klucel (hydroxypropylcellulose) (HPC).
The mark [12] stands for this setting: dose: 50.0 mg/kg/injection, schedule: Q04DX003 (ip), vehicle: Klucel (hydroxypropylcellulose) (HPC).
Setting [13] is: dose: 100.0 mg/kg/injection, schedule: Q04DX003 (ip), vehicle: Klucel (hydroxypropylcellulose) (HPC).
[14] abbreviates: dose: 25.0 mg/kg/injection, schedule: Q01DX009 (ip), vehicle: Klucel (hydroxypropylcellulose) (HPC).

Several values for one entry are separate records, joined by “and”; a condition that tells them apart may be missing. Equal values may be shown once. Inconclusive results and toxic doses are left out.

As to `Cc1ccc(S(=O)(=O)OCCN(CCOS(=O)(=O)c2ccc(C)cc2)c2ccc(N=O)cc2)cc1`, the T/C (dose: 66.0 mg/kg/injection, schedule: Q04DX003 (ip), vehicle: saline sonified) was 195 % of control; the T/C (dose: 100.0 mg/kg/injection, schedule: Q04DX003 (ip), vehicle: saline sonified) is 200 % of control; the T/C (dose: 150.0 mg/kg/injection, schedule: Q04DX003 (ip), vehicle: saline sonified) was 216 % of control.
On to `O=S(=O)(O)c1cc(S(=O)(=O)O)c2cc(N=Nc3ccc(N(CC4CO4)CC4CO4)cc3)ccc2c1` (configuration not stated), for which the T/C was 108 % of control (dose: 100.0 mg/kg/injection, schedule: Q01DX001 (ip), vehicle: saline); 102 % of control (dose: 200.0 mg/kg/injection, schedule: Q01DX001 (ip), vehicle: saline); 113 % of control (dose: 400.0 mg/kg/injection, schedule: Q01DX001 (ip), vehicle: saline).
With `CC(=O)OCCN1CCN(CCCN2c3ccccc3Sc3ccc(C(F)(F)F)cc32)CC1`, the T/C by setting is: (dose: 0.69 mg/kg/injection, schedule: Q01DX009 (ip), vehicle: saline) 104 % of control; (dose: 1.04 mg/kg/injection, schedule: Q01DX009 (ip), vehicle: saline) 104 % of control; (dose: 1.56 mg/kg/injection, schedule: Q01DX009 (ip), vehicle: saline) 120 % of control; (dose: 2.34 mg/kg/injection, schedule: Q01DX009 (ip), vehicle: saline) 108 % of control; (dose: 25.0 mg/kg/injection, schedule: Q04DX003 (ip), vehicle: saline with Tween-80) 117 % of control; under setting [1], 91 % of control.
As to `CCCCCCCCCCCCOc1ccccc1`, the T/C is 100 % of control under setting [1], 109 % of control under setting [2] and 100 % of control under setting [3].
Turning to `Cc1cc(=O)cc(C(=O)O)o1`, the T/C runs as follows: (dose: 25.0 mg/kg/injection, schedule: Q04DX003 (ip), vehicle: saline) 113 % of control; under setting [4], 100 % of control; under setting [5], 90 % of control.
Consider `Clc1cccc(N2CN(c3cccc(Cl)c3)CN(c3cccc(Cl)c3)C2)c1`, for which the T/C is, setting by setting: (dose: 100.0 mg/kg/injection, schedule: Q01DX001 (ip), vehicle: saline with Tween-80) 90 % of control; (dose: 200.0 mg/kg/injection, schedule: Q01DX001 (ip), vehicle: saline with Tween-80) 87 % of control; (dose: 400.0 mg/kg/injection, schedule: Q01DX001 (ip), vehicle: saline with Tween-80) 91 % of control.
On to `OC1(CSc2ccccc2)C=CCCC1` (configuration not stated), for which the T/C (dose: 25.0 mg/kg/injection, schedule: Q01DX009 (ip), vehicle: saline with Tween-80) was 97 % of control and 111 % of control; the T/C (dose: 50.0 mg/kg/injection, schedule: Q01DX009 (ip), vehicle: saline with Tween-80) is 98 % of control and 112 % of control and 113 % of control; the T/C (dose: 100.0 mg/kg/injection, schedule: Q01DX009 (ip), vehicle: saline with Tween-80) is 109 % of control and 112 % of control and 121 % of control; the T/C (dose: 200.0 mg/kg/injection, schedule: Q01DX009 (ip), vehicle: saline with Tween-80) is 111 % of control and 119 % of control and 120 % of control.
For `Cc1ccc(S(=O)(=O)N/N=C/C(Br)=C(/Br)C(=O)O)cc1`, the T/C by setting is: under setting [6], 119 % of control; under setting [7], 124 % of control; under setting [8], 155 % of control; under setting [9], 153 % of control.
For the molecule `N#C/C(C(=N)c1ccccc1)=C1\SS/C(=C(\C#N)C(=N)c2ccccc2)S1`, where the note is “dose: 1.5 mg/kg/injection, schedule: Q01DX009 (ip), vehicle: saline with Tween-80”, the T/C was 101 % of control.
Consider `CCn1cnc2c(=S)nc(N)[nH]c21`, for which the T/C is 100 % of control under setting [10]; 118 % of control under setting [6]; 90 % of control under setting [7]; 100 % of control under setting [11]; 100 % of control under setting [12]; 104 % of control under setting [13].
With `CCCC=C=CCN(C)C`, the T/C is, setting by setting: (dose: 12.5 mg/kg/injection, schedule: Q04DX002 (ip), vehicle: saline) 96 % of control; (dose: 25.0 mg/kg/injection, schedule: Q04DX002 (ip), vehicle: saline) 100 % of control; (dose: 50.0 mg/kg/injection, schedule: Q04DX002 (ip), vehicle: saline) 112 % of control.
In the case of `CCOC(=O)c1c(OC(C)=O)cc2c(c1OC(C)=O)-c1ccccc1CC2`, the T/C is 90 % of control under setting [2]; 97 % of control under setting [3]; 99 % of control (dose: 400.0 mg/kg/injection, schedule: Q04DX003 (ip), vehicle: saline with Tween-80).
On to `CC1CCCCN1O` (configuration not stated), for which the T/C by setting is: (dose: 100.0 mg/kg/injection, schedule: Q04DX002 (ip), vehicle: saline with Tween-80) 100 % of control; (dose: 200.0 mg/kg/injection, schedule: Q04DX002 (ip), vehicle: saline with Tween-80) 105 % of control; (dose: 400.0 mg/kg/injection, schedule: Q04DX002 (ip), vehicle: saline with Tween-80) 96 % of control.
With `O=COCC(O)COC=O`, the T/C under setting [4] is 103 % of control; the T/C under setting [5] was 112 % of control; the T/C (dose: 200.0 mg/kg/injection, schedule: Q04DX003 (ip), vehicle: saline) is 112 % of control.
For the molecule `Cc1ccc(C(O)(c2ccccc2)C2C(c3ccccc3)N2C2CCCCC2)cc1` (configuration not stated), the T/C is 96 % of control (dose: 50.0 mg/kg/injection, schedule: Q01DX001 (ip), vehicle: saline sonified); 96 % of control (dose: 100.0 mg/kg/injection, schedule: Q01DX001 (ip), vehicle: saline sonified); 92 % of control (dose: 200.0 mg/kg/injection, schedule: Q01DX001 (ip), vehicle: saline sonified).
Regarding `C/C=C1/CN(C)C2Cc3c([nH]c4ccccc34)C(c3cc4c5c([nH]c4cc3OC)C3(C(=O)OC)CC4CC(CC)C3N(CC5)C4)CC1C2C(=O)OC` (configuration not stated), the T/C (dose: 1.3 mg/kg/injection, schedule: Q01DX009 (ip), vehicle: alcohol) is 88 % of control; the T/C (dose: 4.0 mg/kg/injection, schedule: Q01DX009 (ip), vehicle: alcohol) was 87 % of control; the T/C (dose: 12.0 mg/kg/injection, schedule: Q01DX009 (ip), vehicle: alcohol) is 88 % of control.
On to `c1ccc(OCc2ccc(COc3ccccc3)cc2)cc1`, for which the T/C under setting [6] was 96 % of control; the T/C under setting [7] was 96 % of control; the T/C under setting [14] was 92 % of control and 96 % of control; the T/C under setting [11] was 100 % of control; the T/C under setting [12] is 104 % of control; the T/C under setting [9] was 92 % of control. Also, the T/C under setting [13] is 100 % of control.
In the case of `CC1=C2C(=O)c3ccccc3C2=C(C)S(=O)(=O)O1`, the T/C runs as follows: (dose: 50.0 mg/kg/injection, schedule: Q01DX009 (ip), vehicle: carboxymethylcellulose (CMC)) 119 % of control; (dose: 100.0 mg/kg/injection, schedule: Q01DX009 (ip), vehicle: carboxymethylcellulose (CMC)) 90 % of control; under setting [2], 122 % of control.
For `CCOC(=O)C1(C(=O)OCC)C2CC=CCC21` (configuration not stated), the T/C is 95 % of control (dose: 100.0 mg/kg/injection, schedule: Q01DX009 (ip), vehicle: saline); 100 % of control (dose: 200.0 mg/kg/injection, schedule: Q01DX009 (ip), vehicle: saline); 100 % of control (dose: 400.0 mg/kg/injection, schedule: Q01DX009 (ip), vehicle: saline).
For the molecule `CC(C)=CCC/C(C)=C/CNCCc1c[nH]c2ccccc12`, the T/C under setting [10] was 117 % of control; the T/C under setting [6] is 104 % of control and 117 % of control; the T/C under setting [7] was 117 % of control; the T/C under setting [14] was 120 % of control; the T/C under setting [8] is 120 % of control.
